Test results from a melting point compilation (Tetko et al.).

melting point [°C] | SMILES
160 | Cc1ccc(C(=O)/C=C/c2ccc(-c3cccc([N+](=O)[O-])c3)o2)o1
186 | O=C1c2ccccc2C(=O)c2c(Br)cccc21
194 | O=C(O)CCC(=O)Nc1ccc(S(=O)(=O)Nc2nccs2)cc1
110 | O=C(O)c1c(F)cnc(F)c1F
197 to 201 | COc1ccc2[nH]c(C(=O)O)cc2c1
183 | Cc1ccc(NC(=S)Nc2ccc(C)cc2)cc1
204 | O=C(NCCc1ccccc1)c1cc([N+](=O)[O-])cc([N+](=O)[O-])c1
61 | O=[N+]([O-])c1ccc(Br)c(Cl)c1
144 | COC(=O)c1cc(C(=O)OC)c(C(=O)OC)cc1C(=O)OC
67 to 69 | N#Cc1ncccc1N1CCCCC1
39 to 42 | NCc1ccc(-c2nccs2)cc1
135 to 140 | OC1(c2ccc(Cl)c(C(F)(F)F)c2)CCNCC1
35 to 36 | CCOC(=O)c1cc(Cl)cc(Cl)c1
203 to 204 | Cc1ccccc1N1C(=O)C2ON=C(C(=O)c3ccco3)C2C1=O (stereo unspecified)
187 | Oc1ncccc1Br
33.5 | O=C1CCCCCCCCCCCCCCCO1
152 | COc1ccc(-c2nnc3n2NC(c2ccc(OC)cc2)S3)cc1 (stereo unspecified)
155 | O=c1cc(C(F)(F)F)n2nc(-c3ccc(Cl)cc3)cc2[nH]1

melting point [°C] | SMILES
81 to 83 | N#Cc1cnn(-c2ccccc2)c1-n1cccc1
244 to 247 | NC(C(=O)O)(c1ccccc1)c1ccccc1
27 | Nc1cccc(C(F)(F)F)c1Cl
100 to 104 | COc1ccc2ccccc2c1CO
84 to 85 | c1ccc(C23CC4CC(CC(C4)C2)C3)cc1
57 to 59 | CCCCCCCCCCCCC#CC#CCO
-25.6 | CC1CC(C)(C)CC1=O (stereo unspecified)
215 to 217 | Oc1noc2cc(Cl)ccc12
85 | COc1cccc(N)c1C(=O)O
57 | BrCc1cccc(-c2cccs2)c1
55 | CC(=O)OC1CC(=O)OC1=O (stereo unspecified)
30 to 34 | Fc1cc(Br)cc(Br)c1Br
78 | O=C1c2ccccc2C(=O)N1CCCO
84 | CCOC(=O)c1sc(-c2cccc(N)c2)nc1C
35 to 38 | Brc1coc2ccccc12
35 | CC(=O)c1ccc(C2CC2(Cl)Cl)cc1 (stereo unspecified)
80 to 85 | CCNC(=S)NN

Continued, compound first:

SMILES | melting point [°C]
CC(=O)c1csc([N+](=O)[O-])c1 | 59 to 61
CON(C)C(=O)Nc1ccc(Br)cc1 | 95
COC(=O)C1CC(=O)c2ccccc21 (stereo unspecified) | 45
CC(=O)Oc1ccccc1C(=O)O | 142
Cc1ccc2c(ccc3ccccc32)c1 | 58
COC(=O)[C@H]1C[C@]2(Sc3ccccc3)O[C@@]1(c1ccc(OC)cc1)c1c2cc(Cl)nc1Cl | 118
CCCCCCCC(C)CC (stereo unspecified) | -92.9
C#CC1(O)CC[C@@]2(C)C(CC[C@@H]3[C@@H]2CC[C@@]2(C)[C@H]3CC[C@]2(O)C#C)C1 (stereo partly specified) | 147
C=Cc1ccc(Cl)cc1 | 15.9
Cc1ccc(N2CSc3nnc(-c4ccc([N+](=O)[O-])cc4)n3C2)cc1 | 226
CCC(C)c1ccc(O)cc1 (stereo unspecified) | 61.5
CC1(C)SC2C(NC(=O)C3(N)CCCCC3)C(=O)N2C1C(=O)O (stereo unspecified) | 182
O=C1C2=C(NC1C(=O)c1ccc(Br)cc1)Oc1c(c(=O)oc3ccccc13)C2c1ccc(Br)cc1 (stereo unspecified) | 230
C=C1CC(=O)OC1=O | 69
O=C(O)c1cc2cc(Cl)cc(Br)c2oc1=O | 206 to 208
COc1ccc(/C=C(\C(N)=O)c2nc3ccccc3s2)cc1 | 168

SMILES | melting point [°C]
CC(=O)CCc1oc2ccc(I)cc2c1-c1ccc(C)o1 | 94
C=C(C)CCCCCCCCCCCCCCCC | 14
COc1ccc2c(=O)n3c(cc2c1)CCCC3 | 80
Oc1ccc(Cl)cc1Cc1cc(Cl)ccc1O | 178
Ic1cc(I)c(I)c(I)c1 | 148
Cc1ccc(C=O)c(O)c1 | 60.5
Fc1cc(Br)ccc1-c1ccccc1 | 40
CC1CCC(C(C)C)C(=O)C1 (single isomer, unassigned; (-)) | -6
CC1(C)CCCCC1=O | -20.5
CC(C)(C)c1cccc2ccccc12 | -11.3
C#CCN1CCS(=O)(=O)CC1 | 114 to 116
CC(C)(C)OC(=O)NC(Cc1cccc(F)c1)C(=O)O (stereo unspecified) | 78
C=CC=c1c(=CC)c(O)c(C2=NNC(=O)C2=CNc2ccncc2)c(=O)n1C | 238
CCCC(=O)c1ccc(Cl)cc1 | 36 to 39
O=C(O)c1ccccc1-c1ccco1 | 87
